According to ChEMBL document CHEMBL1126002, “Interphenylene 7-oxabicyclo[2.2.1]heptanes. SQ33,961: a new potent, long-acting thromboxane antagonist” (Bioorg Med Chem Lett, 1991):

Assays:
Homo sapiens [1] = species on record: Homo sapiens; assay: Compound was evaluated for the ability to inhibit […] induced platelet aggregation (U-IPA) in human platelet rich plasma.; assay type: functional; details: read-out: I50
Homo sapiens [2] = species on record: Homo sapiens; assay: Compound was evaluated for the ability to inhibit arachidonic acid induced platelet aggregation (AAIPA) in human platelet rich plasma; assay type: functional; details: read-out: I50
Mus musculus = assay: Compound (0.2 mpk/po) was evaluated for the ability to protect from U-46,619 induced lethality in mice as a function of time one half of the population survives from time of dosage; assay type: functional
Thromboxane A2 receptor = biological target: T1, Thromboxane A2 receptor (Homo sapiens, UniProt P21731); assay: Compound was evaluated for the receptor binding studies with Thromboxane A2 receptor using [3H]-SQ 29548 as radioligand in human platelet membranes.; assay type: cell membranes
T1 sequence (P21731 whole entry): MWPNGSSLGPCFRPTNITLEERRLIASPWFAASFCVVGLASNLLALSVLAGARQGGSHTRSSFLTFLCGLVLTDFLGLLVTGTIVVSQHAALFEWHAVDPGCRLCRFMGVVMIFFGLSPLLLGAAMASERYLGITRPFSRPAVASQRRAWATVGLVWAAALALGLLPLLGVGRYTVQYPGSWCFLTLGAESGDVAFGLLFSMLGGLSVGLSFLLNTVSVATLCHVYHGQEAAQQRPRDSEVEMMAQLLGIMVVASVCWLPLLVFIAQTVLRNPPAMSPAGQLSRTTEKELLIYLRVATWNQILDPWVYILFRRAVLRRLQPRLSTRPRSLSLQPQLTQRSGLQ

IC50 (Homo sapiens [1]) [nM] | IC50 (Homo sapiens [2]) [nM] | Compound | T50 (Mus musculus) [h] | Kd (Thromboxane A2 receptor) [nM]
81 | 20 | CNC(=O)c1coc(C2C3CCC(O3)C2Cc2ccccc2CCC(=O)O)n1 (stereo unspecified) | – | –
6 | 1 | CCCCCCCCCCNC(=O)c1coc(C2C3CCC(O3)C2Cc2ccccc2CCC(=O)O)n1 (stereo unspecified) | – | –
13 | 4 | O=C(O)CCc1ccccc1CC1C2CCC(O2)C1c1nc(C(=O)NCCCCc2ccc(Cl)cc2)co1 (stereo unspecified) | – | –
13 | 2 | CCCCCCCNC(=O)c1coc(C2C3CCC(O3)C2Cc2ccccc2CCC(=O)O)n1 (stereo unspecified) | – | –
25 | 3 | O=C(O)CCc1ccccc1CC1C2CCC(O2)C1c1nc(C(=O)NC2CCCCC2)co1 (stereo unspecified) | – | –
5 | 3 | CC(C)(C)CCCCCCNC(=O)c1coc(C2C3CCC(O3)C2Cc2ccccc2CCC(=O)O)n1 (stereo unspecified) | – | –

Compound | IC50 (Homo sapiens [1]) [nM] | IC50 (Homo sapiens [2]) [nM] | T50 (Mus musculus) [h] | Kd (Thromboxane A2 receptor) [nM]
O=C(O)CCc1ccccc1CC1C2CCC(O2)C1c1nc(C(=O)NCCCCC2CCCCC2)co1 (stereo unspecified) | 6 | 2 | 23 | 0.1
